Measurements from ChEMBL document CHEMBL1201862, “PubChem BioAssay data set” (2004).
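Each compound was tested at five concentrations against cells in 96-well plates for 48 hours. GI50 = concentration required for 50% inhibition of growth.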 The source made the active and inactive calls. No stated cut-off is given here; in the data, active = GI50 up to about 1.1 µM and inactive = higher.

Assays:
Assay in all cases: growth of human tumour cells (NCI), 48 h
SF-539 = tested on: SF-539
HOP-62 = tested on: HOP-62
UO-31 = tested on: UO-31
SW-620 = tested on: SW-620
M14 = tested on: M14
NCI-H522 = tested on: NCI-H522
OVCAR-8 = tested on: OVCAR-8
CCRF-CEM = tested on: CCRF-CEM
IGROV-1 = tested on: IGROV-1
SK-OV-3 = tested on: SK-OV-3
NCI-H460 = tested on: NCI-H460
HCT-15 = tested on: HCT-15
SK-MEL-2 = tested on: SK-MEL-2
NCI-H226 = tested on: NCI-H226
Malme-3M = tested on: Malme-3M
UACC-257 = tested on: UACC-257
RXF 393 = tested on: RXF 393

Compound	GI50 (SF-539)	GI50 (HOP-62)	GI50 (UO-31)	GI50 (SW-620)	GI50 (M14)	GI50 (NCI-H522)	GI50 (OVCAR-8)	GI50 (CCRF-CEM)	GI50 (IGROV-1)	GI50 (SK-OV-3)	GI50 (NCI-H460)	GI50 (HCT-15)	GI50 (SK-MEL-2)	GI50 (NCI-H226)	GI50 (Malme-3M)	GI50 (UACC-257)	GI50 (RXF 393)
C=CC(=O)NCNC(=O)C=C	> 100 µM (inactive)	> 100 µM (inactive)	> 100 µM (inactive)	> 100 µM (inactive)	> 100 µM (inactive)	> 100 µM (inactive)	> 100 µM (inactive)	> 100 µM (inactive)	> 100 µM (inactive)	> 100 µM (inactive)	> 100 µM (inactive)	> 100 µM	> 100 µM (inactive)	> 100 µM (inactive)	> 100 µM (inactive)	> 100 µM (inactive)	–
NC(=O)c1csc(C2CCC(CO)O2)n1 (stereo not drawn)	> 100 µM (inactive)	> 100 µM (inactive)	> 100 µM (inactive)	> 100 µM (inactive)	> 100 µM (inactive)	> 100 µM (inactive)	> 100 µM (inactive)	> 100 µM (inactive)	> 100 µM (inactive)	> 100 µM (inactive)	> 100 µM (inactive)	> 100 µM	> 100 µM (inactive)	> 100 µM (inactive)	> 100 µM (inactive)	> 100 µM (inactive)	–
CCOC(=O)C(Cc1ccccc1)NC(=O)OC(C)(C)C (stereo not drawn)	> 100 µM (inactive)	> 100 µM (inactive)	> 100 µM (inactive)	> 100 µM (inactive)	> 100 µM (inactive)	> 10 µM (inactive)	> 100 µM (inactive)	> 100 µM (inactive)	> 100 µM (inactive)	> 100 µM (inactive)	> 100 µM (inactive)	> 100 µM	> 100 µM (inactive)	–	> 100 µM (inactive)	> 100 µM (inactive)	–
CC(C)=NNC(=S)NC12CC3CC(CC(C3)C1)C2	> 100 µM (inactive)	> 100 µM (inactive)	> 100 µM (inactive)	> 100 µM (inactive)	> 100 µM (inactive)	> 100 µM (inactive)	> 100 µM (inactive)	> 100 µM (inactive)	> 100 µM (inactive)	> 100 µM (inactive)	> 100 µM (inactive)	> 100 µM	> 100 µM (inactive)	> 100 µM (inactive)	–	> 100 µM (inactive)	> 100 µM (inactive)
CSc1cnc2ccccc2c1Sc1cn(C)c2ccccc2c1=O	29 µM (inactive)	18 µM (inactive)	25.5 µM (inactive)	70.6 µM (inactive)	> 100 µM (inactive)	–	18.5 µM (inactive)	19.7 µM (inactive)	18.7 µM (inactive)	17.6 µM (inactive)	13.2 µM (inactive)	35.8 µM	21.8 µM (inactive)	26.1 µM (inactive)	> 100 µM (inactive)	59.4 µM (inactive)	38.4 µM (inactive)
Cn1c2c(c3ccccc31)CCN(CCN1CCN(c3ccccc3)CC1)C2=O	41.3 µM (inactive)	–	> 100 µM (inactive)	> 100 µM (inactive)	> 100 µM (inactive)	26.3 µM (inactive)	> 100 µM (inactive)	> 100 µM (inactive)	> 100 µM (inactive)	> 100 µM (inactive)	> 100 µM (inactive)	> 100 µM	–	–	–	–	26.7 µM (inactive)
Cc1ccc(NC(=O)CC(=O)n2nc(-c3ccccc3)c(/N=N/c3ccccc3Cl)c2-c2ccccc2)cc1	76.6 µM (inactive)	83.8 µM (inactive)	> 10 µM (inactive)	92 µM (inactive)	88.3 µM (inactive)	65.8 µM (inactive)	42.5 µM (inactive)	41.4 µM (inactive)	> 10 µM (inactive)	27 µM (inactive)	75.5 µM (inactive)	> 10 µM	> 10 µM (inactive)	> 10 µM (inactive)	48.3 µM (inactive)	> 10 µM (inactive)	–
c1ccc(SC2CCSc3ccccc3C2Sc2ccccc2)cc1 (stereo not drawn)	> 100 µM (inactive)	> 100 µM (inactive)	6.9 µM (inactive)	> 100 µM (inactive)	> 100 µM (inactive)	> 100 µM (inactive)	> 100 µM (inactive)	> 100 µM (inactive)	> 10 µM (inactive)	> 10 µM (inactive)	> 100 µM (inactive)	> 100 µM	–	> 100 µM (inactive)	–	27.9 µM (inactive)	–
CC(C)(C)C[P+](C)(C)c1ccccc1	> 100 µM (inactive)	> 100 µM (inactive)	> 100 µM (inactive)	> 100 µM (inactive)	> 100 µM (inactive)	–	> 100 µM (inactive)	> 100 µM (inactive)	> 100 µM (inactive)	> 100 µM (inactive)	> 100 µM (inactive)	> 100 µM	> 100 µM (inactive)	> 100 µM (inactive)	> 100 µM (inactive)	> 100 µM (inactive)	> 100 µM (inactive)
CCN(CC)CC(=O)Nc1ccc2c(c1)C(=O)c1ccc(NC(=O)CN(CC)CC)cc1C2=O	16.3 µM (inactive)	20.3 µM (inactive)	> 100 µM (inactive)	24.9 µM (inactive)	19.7 µM (inactive)	21.1 µM (inactive)	29.5 µM (inactive)	20.7 µM (inactive)	17.7 µM (inactive)	22.9 µM (inactive)	14.1 µM (inactive)	36.4 µM	> 100 µM (inactive)	–	–	31.8 µM (inactive)	3.22 µM (inactive)
CCOC(=O)C1=C(C(=O)OCC)C2(c3ccccc3)N(O1)c1ccccc1C2(C)C (stereo not drawn)	43.5 µM (inactive)	37.6 µM (inactive)	20.6 µM (inactive)	94.8 µM (inactive)	38.5 µM (inactive)	22.6 µM (inactive)	48.3 µM (inactive)	39.4 µM (inactive)	41.8 µM (inactive)	30.1 µM (inactive)	39.5 µM (inactive)	–	30.9 µM (inactive)	32.4 µM (inactive)	52.2 µM (inactive)	39.2 µM (inactive)	46 µM (inactive)
O=C1C2c3[nH]c4ccccc4c3C3CCC(c4ccccc4)CC3C2C(=O)N1c1ccccc1 (stereo not drawn)	97.7 µM (inactive)	–	> 100 µM (inactive)	> 100 µM (inactive)	> 100 µM (inactive)	–	> 100 µM (inactive)	44.3 µM (inactive)	> 100 µM (inactive)	> 100 µM (inactive)	> 100 µM (inactive)	> 100 µM	–	> 100 µM (inactive)	36.8 µM (inactive)	–	> 100 µM (inactive)
COc1cc(CNc2nc3c(N)cc(C(F)(F)F)cc3nc2-c2ccccc2)cc(OC)c1OC	> 10 µM (inactive)	39.5 µM (inactive)	16.8 µM (inactive)	85.1 µM (inactive)	47.1 µM (inactive)	11.6 µM (inactive)	71.1 µM (inactive)	> 10 µM (inactive)	> 10 µM (inactive)	> 10 µM (inactive)	25.9 µM (inactive)	14.9 µM	52.1 µM (inactive)	50.2 µM (inactive)	40 µM (inactive)	63 µM (inactive)	8.47 µM (inactive)
O=C(CCc1nnc(S)[nH]1)Nc1ccc(Cl)c(Cl)c1	62.5 µM (inactive)	20 µM (inactive)	45.6 µM (inactive)	41.3 µM (inactive)	27.4 µM (inactive)	23.4 µM (inactive)	> 100 µM (inactive)	80.4 µM (inactive)	26.5 µM (inactive)	> 100 µM (inactive)	90.8 µM (inactive)	6.25 µM	6.18 µM (inactive)	> 100 µM (inactive)	> 100 µM (inactive)	34.8 µM (inactive)	–
O=C1NC(=O)C(C(=O)C(=O)Nc2ccc(Br)cc2)C(=O)N1	> 100 µM (inactive)	–	> 100 µM (inactive)	> 100 µM (inactive)	> 100 µM (inactive)	> 100 µM (inactive)	> 100 µM (inactive)	> 100 µM (inactive)	> 100 µM (inactive)	> 100 µM (inactive)	–	> 100 µM	–	> 100 µM (inactive)	> 100 µM (inactive)	> 100 µM (inactive)	5.04 µM (inactive)
CC[n+]1c(/C=C/c2ccc(N(CCCl)CCCl)cc2)ccc2cc(Br)ccc21	1.55 µM (inactive)	3.43 µM (inactive)	15.1 µM (inactive)	1.93 µM (inactive)	1.87 µM (inactive)	0.471 µM (active)	1.86 µM (inactive)	0.345 µM (active)	0.574 µM (active)	2.23 µM (inactive)	2.65 µM (inactive)	14.9 µM	0.382 µM (active)	1.82 µM (inactive)	1.13 µM (inactive)	1.11 µM (active)	1.31 µM (inactive)
O=C(O)Cc1cccc2c1Oc1ccccc1S2	> 100 µM (inactive)	> 100 µM (inactive)	> 100 µM (inactive)	> 100 µM (inactive)	> 100 µM (inactive)	–	> 100 µM (inactive)	> 100 µM (inactive)	> 100 µM (inactive)	> 100 µM (inactive)	> 100 µM (inactive)	> 100 µM	> 100 µM (inactive)	> 100 µM (inactive)	> 100 µM (inactive)	> 100 µM (inactive)	> 100 µM (inactive)
C=CC[P@]1(=O)O[C@H](c2ccccc2)C(C)N1C(C)C (stereo partly drawn)	> 100 µM (inactive)	> 100 µM (inactive)	> 100 µM (inactive)	> 100 µM (inactive)	> 100 µM (inactive)	> 100 µM (inactive)	> 100 µM (inactive)	> 100 µM (inactive)	> 100 µM (inactive)	> 100 µM (inactive)	> 100 µM (inactive)	> 100 µM	> 100 µM (inactive)	> 100 µM (inactive)	> 100 µM (inactive)	> 100 µM (inactive)	> 100 µM (inactive)
